According to publication PMC4013053, “Identification of Selective Small Molecule Inhibitors of the Nucleotide-Binding Oligomerization Domain 1 (NOD1) Signaling Pathway” (PLoS ONE, 2014):

How the values were obtained:
NOD1 = target: T1, NOD1 (Homo sapiens, UniProt Q9Y239); test: Tri-DAP-stimulated IL-8 secretion in primary human monocytes; format: cell-based; parameters: Monocytes were purified from heparinized human whole blood; endogenous in cells; host or cells: primary human blood monocytes; conditions: human primary peripheral blood monocytes, IL-8 released into medium; read-out: IC50 Monocyte Tri-DAP
T1 sequence (Q9Y239 1-953): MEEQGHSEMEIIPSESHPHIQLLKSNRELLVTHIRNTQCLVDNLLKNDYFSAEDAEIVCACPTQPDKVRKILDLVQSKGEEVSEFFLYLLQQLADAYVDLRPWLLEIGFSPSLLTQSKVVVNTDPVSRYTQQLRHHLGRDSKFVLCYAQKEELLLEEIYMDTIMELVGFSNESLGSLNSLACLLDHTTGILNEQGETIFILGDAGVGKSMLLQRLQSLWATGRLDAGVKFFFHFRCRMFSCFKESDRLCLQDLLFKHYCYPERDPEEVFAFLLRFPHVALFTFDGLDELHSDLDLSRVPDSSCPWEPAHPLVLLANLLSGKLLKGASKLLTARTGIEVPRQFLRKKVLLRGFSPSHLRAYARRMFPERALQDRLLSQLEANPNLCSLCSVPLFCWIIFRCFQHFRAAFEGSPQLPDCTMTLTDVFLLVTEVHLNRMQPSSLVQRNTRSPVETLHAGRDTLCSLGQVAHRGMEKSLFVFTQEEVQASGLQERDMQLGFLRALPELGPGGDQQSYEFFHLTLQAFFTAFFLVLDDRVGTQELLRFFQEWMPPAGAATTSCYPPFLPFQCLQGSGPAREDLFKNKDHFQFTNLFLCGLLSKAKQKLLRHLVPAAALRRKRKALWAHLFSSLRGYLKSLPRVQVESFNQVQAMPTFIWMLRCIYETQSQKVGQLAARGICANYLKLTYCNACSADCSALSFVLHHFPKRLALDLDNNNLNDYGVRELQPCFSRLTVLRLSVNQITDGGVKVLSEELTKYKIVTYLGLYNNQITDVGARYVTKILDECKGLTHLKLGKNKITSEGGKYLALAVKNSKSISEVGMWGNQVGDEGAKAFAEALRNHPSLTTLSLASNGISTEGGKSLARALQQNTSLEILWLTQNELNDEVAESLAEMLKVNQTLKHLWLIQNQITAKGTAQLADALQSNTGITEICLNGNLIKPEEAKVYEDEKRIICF
Method: Monocytes were purified from heparinized human whole blood by centrifugation on Ficoll (Histopaque 1077) followed by Percoll gradients. Monocyte purity was >95% by morphological assessment of Wright’s stained cytospins. Cells were seeded at 100,000 per well in 96-well plates in RPMI containing 10%HI-FBS, pre-incubated for 1 hour with compounds, and then stimulated with either 25 µg/mL Tri-DAP or 1 µg/mL MDP. The concentration of IL-8 in medium samples collected after 24-hour treatment was determined by HTRF whereas IL-1β, IL-6 and TNFα were measured using the MS6000 human pro-inflammatory-4 II tissue culture kit (Meso Scale Discovery).

[1] = Permeability across an artificial membrane; format: in vitro ADME; conditions: PAMPA
From the text: (§1) Physicochemical analyses of compounds were completed at GSK.

endogenous NOD1 = target: T2, endogenous NOD1 (Homo sapiens, UniProt Q9Y239); test: Tri-DAP-stimulated IL-8 release in HCT116 cells; format: cell-based; conditions: HCT116, increasing compound concentrations 0.005–1 µM, Tri-DAP 0.6–75 µg/mL
T2 construct: Compound activity on endogenous NOD1 and NOD2 receptors was determined; host or cells: HCT116
T2 sequence (Q9Y239 1-953): T1 sequence (Q9Y239 1-953)

murine NOD1 = test: NOD1 stimulated KC (CXCL1) production in murine bone marrow derived macrophages; format: cell-based, mouse; conditions: murine BMDM, 25 µg/mL FK156 or Tri-DAP, 24 hours
Method: C57BL/6 mice were obtained from the Jackson Laboratories. Bone marrow was flushed from the femurs and tibiae of adult (∼3 month old) mice with serum-free DMEM medium using a 23-gauge needle and syringe. A fine cell suspension was obtained by gentle aspiration and passage through a […] cell strainer. After centrifugation and re-suspending in DMEM supplemented with 10%HI-FBS, the mononuclear cells obtained from each animal were plated into the central 60 wells of a 96-well plate. After 24 hours, the medium and non-adherent cells were removed and replaced with DMEM with 10%HI-FBS containing 10 ng/mL M-CSF and the cells cultured for 1 week with two additional medium changes. After this time the medium was aspirated and the cells pre-treated with compounds for 1 hour and then stimulated for 24 hours with either 25 µg/mL Tri-DAP or FK156. Each treatment was performed in triplicate wells. The concentration of murine KC (CXCL1) together with 6 other cytokines/chemokines present in conditioned medium was then determined using the murine pro-inflammatory 7-plex assay (Meso Scale Discovery).

α1-acid glycoprotein = α1-acid glycoprotein (AGP) binding; format: in vitro ADME
From the text: as §1

human serum albumin = human serum albumin (Homo sapiens, UniProt P02768); test: Human serum albumin (HSA) binding; format: in vitro ADME
From the text: as §1

TLR2 = TLR2 (Homo sapiens, UniProt O60603); test: Pam2CSK4-stimulated IL-8 release in 293/hTLR2 cells; format: cell-based; conditions: IL-8 released into medium
NOD2 = NOD2 (Homo sapiens, UniProt Q9HC29); test: MDP-stimulated IL-8 release in 293/hNOD2 cells; format: cell-based; conditions: HEK293 stably expressing human NOD2, IL-8 released into medium
[2] = Chromatographic hydrophobicity index (Chrom log D); format: physicochemical; conditions: pH 7.4
From the text: as §1

full length human RIP2 = target: T3, full length human RIP2 (Homo sapiens, UniProt O43353); test: RIP2 kinase autophosphorylation (ADP-Glo); format: biochemical; conditions: RIPK2 autophosphorylation
T3 construct: autophosphorylation of full length human FLAG-6His tagged RIP2 expressed and purified from baculovirus; FLAG; 6His; made in house
Method: Direct effects of compounds on RIP2 kinase activity was determined by autophosphorylation of full length human FLAG-6His tagged RIP2 expressed and purified from baculovirus. Enzyme was pre-incubated with compounds in assay buffer (50 mM HEPES pH 7.5, 25 mM MgCl2, 0.05%[w/v] CHAPS, 1 mM DTT and 0.05 mg/mL BSA) in 384-well plates, and then incubated with 10 µM ATP for 2 hours at room temperature. The amount of ADP generated was measured using the ADP-Glo universal ADP detection assay for kinases (Promega) and luminescence quantified on a ViewLux imager.

T3 sequence (O43353 whole entry): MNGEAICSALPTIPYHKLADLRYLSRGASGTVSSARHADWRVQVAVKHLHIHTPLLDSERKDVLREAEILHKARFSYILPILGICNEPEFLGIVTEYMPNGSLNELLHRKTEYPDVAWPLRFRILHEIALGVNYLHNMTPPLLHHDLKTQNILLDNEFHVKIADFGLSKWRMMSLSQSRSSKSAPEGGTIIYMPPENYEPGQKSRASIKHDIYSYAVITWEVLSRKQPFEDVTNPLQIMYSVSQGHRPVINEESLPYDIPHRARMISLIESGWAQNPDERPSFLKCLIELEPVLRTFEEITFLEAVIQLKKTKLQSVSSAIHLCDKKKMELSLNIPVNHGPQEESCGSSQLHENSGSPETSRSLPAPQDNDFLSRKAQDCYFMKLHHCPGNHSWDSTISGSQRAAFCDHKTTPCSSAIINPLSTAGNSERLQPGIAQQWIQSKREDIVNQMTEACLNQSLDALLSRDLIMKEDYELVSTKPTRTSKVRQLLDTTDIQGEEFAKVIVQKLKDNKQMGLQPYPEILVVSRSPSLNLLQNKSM
Sequence of TLR2 (O60603 21-784): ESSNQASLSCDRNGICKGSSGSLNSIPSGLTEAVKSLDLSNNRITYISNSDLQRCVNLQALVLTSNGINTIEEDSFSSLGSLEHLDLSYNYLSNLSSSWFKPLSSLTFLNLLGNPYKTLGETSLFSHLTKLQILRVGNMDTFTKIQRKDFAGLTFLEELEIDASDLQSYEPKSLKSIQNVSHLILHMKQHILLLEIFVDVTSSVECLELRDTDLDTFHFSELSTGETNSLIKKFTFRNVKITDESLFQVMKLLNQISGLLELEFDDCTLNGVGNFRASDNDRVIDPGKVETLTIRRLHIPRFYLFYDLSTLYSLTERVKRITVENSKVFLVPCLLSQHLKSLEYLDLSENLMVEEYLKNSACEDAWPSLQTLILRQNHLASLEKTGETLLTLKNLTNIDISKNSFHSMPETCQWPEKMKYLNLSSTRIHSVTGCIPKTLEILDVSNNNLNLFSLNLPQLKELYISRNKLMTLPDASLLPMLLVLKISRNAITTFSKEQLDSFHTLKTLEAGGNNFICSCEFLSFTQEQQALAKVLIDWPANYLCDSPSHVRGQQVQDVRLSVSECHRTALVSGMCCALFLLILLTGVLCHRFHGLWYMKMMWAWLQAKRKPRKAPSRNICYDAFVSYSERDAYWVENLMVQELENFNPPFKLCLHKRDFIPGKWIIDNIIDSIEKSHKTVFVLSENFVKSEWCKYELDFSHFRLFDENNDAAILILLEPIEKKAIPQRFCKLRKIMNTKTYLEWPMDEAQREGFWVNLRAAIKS
Sequence of NOD2 (Q9HC29 whole entry): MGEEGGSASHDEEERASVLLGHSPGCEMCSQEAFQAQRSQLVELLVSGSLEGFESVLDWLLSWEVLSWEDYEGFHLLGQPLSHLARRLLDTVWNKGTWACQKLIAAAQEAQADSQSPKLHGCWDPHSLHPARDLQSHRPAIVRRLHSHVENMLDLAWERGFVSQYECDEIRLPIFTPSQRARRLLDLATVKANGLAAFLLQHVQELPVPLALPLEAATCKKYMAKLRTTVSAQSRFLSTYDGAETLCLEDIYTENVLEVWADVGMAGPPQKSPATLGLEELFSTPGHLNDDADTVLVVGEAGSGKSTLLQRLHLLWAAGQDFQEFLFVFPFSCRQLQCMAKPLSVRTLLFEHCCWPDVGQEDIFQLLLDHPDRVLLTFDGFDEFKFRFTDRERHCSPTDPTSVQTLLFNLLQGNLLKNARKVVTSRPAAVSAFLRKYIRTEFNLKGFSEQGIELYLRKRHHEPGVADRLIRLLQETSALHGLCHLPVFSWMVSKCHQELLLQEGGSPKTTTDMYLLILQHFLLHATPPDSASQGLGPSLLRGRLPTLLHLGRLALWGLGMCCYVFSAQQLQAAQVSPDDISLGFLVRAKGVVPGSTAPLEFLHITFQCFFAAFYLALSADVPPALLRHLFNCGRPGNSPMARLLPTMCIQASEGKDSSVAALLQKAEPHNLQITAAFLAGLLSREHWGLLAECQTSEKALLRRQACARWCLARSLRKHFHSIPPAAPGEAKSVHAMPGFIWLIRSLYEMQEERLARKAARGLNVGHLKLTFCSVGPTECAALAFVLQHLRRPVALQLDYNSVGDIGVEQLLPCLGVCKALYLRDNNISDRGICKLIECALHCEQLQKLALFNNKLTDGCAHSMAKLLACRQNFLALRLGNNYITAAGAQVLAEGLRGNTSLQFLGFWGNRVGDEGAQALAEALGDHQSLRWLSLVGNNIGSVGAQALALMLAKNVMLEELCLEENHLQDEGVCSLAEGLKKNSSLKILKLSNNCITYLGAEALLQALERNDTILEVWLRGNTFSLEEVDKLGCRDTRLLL
Sequence of human serum albumin (P02768 25-609): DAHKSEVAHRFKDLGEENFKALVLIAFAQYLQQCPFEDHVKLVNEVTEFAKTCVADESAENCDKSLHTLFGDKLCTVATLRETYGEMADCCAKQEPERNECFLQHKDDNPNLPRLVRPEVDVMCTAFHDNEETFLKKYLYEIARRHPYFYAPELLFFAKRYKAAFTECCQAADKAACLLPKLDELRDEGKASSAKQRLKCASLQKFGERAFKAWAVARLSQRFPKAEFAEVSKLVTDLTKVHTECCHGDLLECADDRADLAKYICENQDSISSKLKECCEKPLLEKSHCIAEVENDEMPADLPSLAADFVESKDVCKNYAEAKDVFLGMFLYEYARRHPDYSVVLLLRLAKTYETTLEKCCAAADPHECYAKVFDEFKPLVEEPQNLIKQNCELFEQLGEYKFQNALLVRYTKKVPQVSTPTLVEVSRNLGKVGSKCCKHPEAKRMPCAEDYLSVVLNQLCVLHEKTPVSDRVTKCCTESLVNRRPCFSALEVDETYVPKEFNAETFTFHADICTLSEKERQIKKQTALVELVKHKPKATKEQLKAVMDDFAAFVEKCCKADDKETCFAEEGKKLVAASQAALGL

Row | SMILES | IC50 (NOD1) [µM] | Papp [1] [×10⁻⁶ cm/s] | effect on Tri-DAP concentration response (IL-8) (endogenous NOD1) | inhibition of FK156 or Tri-DAP-stimulated KC production (murine NOD1) | AGP binding (α1-acid glycoprotein) [%] | HSA binding (human serum albumin) [%] | IC50 (TLR2) [µM] | IC50 (NOD2) [µM] | chromatographic logD [2] | IC50 (full length human RIP2) [µM]
1 | Cc1ccc(S(=O)(=O)Nc2cccc(C(=O)Nc3ccc4nc(C)sc4c3)c2)cc1 [Compound 16] | 0.2 | 22 | progressive reduction in both the apparent EC50 and maximum response of Tri-DAP | partial inhibition at best | 85.71 | 97.2 | > 50 | > 30 | 4.89 | > 50
2 | Cc1nc2ccccc2c(=O)n1-c1ccc(Cl)c(NS(=O)(=O)c2ccccc2F)c1 [Compound 22] | 0.06 |  | progressive reduction in both the apparent EC50 and maximum response of Tri-DAP | little or no inhibitory activity |  |  | > 50 | > 50 |  | > 50
3 | CCc1ccc(S(=O)(=O)Nc2cc(-n3c(C)nc4ccccc4c3=O)ccc2F)s1 [GSK223] | 1 | 49 |  |  | 80.81 | 97.38 | > 50 | > 50 | 4.27 | > 50
4 | Cc1nc2ccc(NC(=O)c3cccc(NS(=O)(=O)c4ccc(F)cc4)c3)cc2s1 [GSK966] | 2 | 30 |  |  | 83.38 | 97.14 | > 50 |  | 4.64 | > 100
5 | Cn1c(=O)[nH]c(=O)c2c1nc(CCSc1ccccc1)n2Cc1ccccc1 [SB711] | 3.2 |  |  |  |  | 95.94 | > 50 | > 50 | 5.95 | > 100
